The values that follow come from patent EP1024807B1, “USE OF THE COMPOUND 2-METHOXYPHENYL-1-METHYL-5P-METHYLBENZOYL-PYRROL-2-ACETAMIDO ACETATE FOR THE PRODUCTION OF AN ANTI-INFLAMMATORY DRUG WITH PREVENTION OF GASTRIC HYPERSECRETION AND RENAL IMPAIRMENT” (MEDOSAN Ricerca S.r.l., priority 1997, dated 1999).

One data set has as its system gastric PGE2. Kind of data set: Effect on gastric PGE2 in the rat. Format: in vivo. From the text:
Moreover, as with all the NSAIDs currently aveilable, it inhibits gastric PGE2 in the rat, albeit to a lesser degree than ASA (Table 7).

Data set [1] deals with post-traumatic arthralgia. The experiment in a line: Clinical comparison in post-traumatic arthralgia. It counts as in vivo, man. An excerpt: The same can be said in the treatment of post-traumatic arthralgia.
In data set [2] the test system is patients. The note with it: 336 patients, Diclofenac 100mg, cited from earlier work; for Suspensions of treatment: number of patients, 180 days of treatment; for % of totale: suspensions of treatment, 180 days.
The subject of data set [3] is Rats. Kind of data set: Diuresis in normally hydrated rats. Format: in vivo. As for the experimental part: In the course of various studies conducted on animals to show the lack of renal impairment, a test was carried out to compare the diuresis in normally hydrated rats treated orally for 8 consecutive days with amtolmeting guacyl and diclofenac, which is also a NSAID. […] It is to be stressed that the behaviour of diclofenac is completely in line with the behaviour of a NSAID as known in the art, that is to say to markedly reduce the diuresis, while that of amtolmeting guacyl is completely unforeseeable.
Repeated doses (one per day) for 8 days increased diuresis in the treated rats by 35% (see fig. 13).

The test system of data set [4] is patients. The experiment in a line: Clinical trials: tolerability, adverse events and suspensions of treatment. It counts as in vivo, man. The note with it: 31 comparative and 6 non-comparative clinical trials, 1596 patients. From the text:
Interest in the amtolmetin guacyl molecule arose following a thorough analysis of the results of 31 comparative and 6 non-comparative clinical trials involving 1596 patients. […] Turthermore the physician, being aware of administering an NSAID, was expecting adverse events and could not be expected to be an impartial observer. The few cases of gastro-intestinal phenomena reported with amtolmetin guacyl were transitory and in no event accompanied by the presence of occult blood in the stools. Moreover, even in the presence of a reported side-effect it was almost never necessary to suspend treatment (0.4% of suspensions).
Following are summarized the results obtained on a total of 1596 patients in 37 clinical trials.
Confirmation of the above described advantages is the very low incidence of treatment suspension for adverse events found in clinics (Table 17), which is not the case for most of NSAIDs known in the art (Table 18).

Data set [5] has as its system Rats. The experiment in a line: Carrageenan pleurisy, exudate volume at 4 hours. It counts as in vivo. As for the experimental part: Compounds were administered orally 1 hour prior to and 1 hour post pleurisy induction in a volume of 0.5 ml 1% gum tragacanth. Indomethacin was used at 3 mg/kg. MED 15 was used at 25, 50 and 100 mg/kg.
A 1% solution of carrageenan in sterile saline was prepared. The solution was placed in an incubator at 37°C for half an hour to allow complete hydration of the carrageenan. The solution was then mixed to homogeneity.
A 21Gx40mm syringe needle was reduced in length to 5mm and fitted to a 1ml syringe containing the irritant. Rats were lightly anaesthetised with halothane. Each animal was placed on its left side. The skin over the thorax was lifted with and a 1cm incision made through the skin with a pair of scissors. The wound was opened to expose the underlying muscle. Using a scalpel, a 2-3mm incision was made into the muscle of the 5th-6th intercostal space. A volume of 0.15ml of carrageenan solution was then injected into the pleural cavity. The wound was closed with a 11mm Michel clip and the animal allowed to recover from the anaesthetic. Groups of animals were killed 4 hours after pleurisy induction.
Lavage solution: One part of 3.15% trisodium citrate solution, mixed with nine parts of Hank's balanced salt solution.
Rats were killed by over exposure to carbon dioxide. For each rat the skin over the thorax was moistened with IMS alcohol. The skin over the sternum was then lifted and a 5cm cut made, to expose the musculature of the upper abdomen and thoracic cavity. The muscle overlying the xiphisternum was lifted with tissue forceps and a 1cm cut made through the muscle to reveal the cartilage. This was then lifted and the diaphragm perforated just beneath the cartilage. Two cuts were then made through the rib cage either side of the cartilage to form a flap which could be folded back to expose the thoracic cavity.
Using a syringe, 1ml of lavage fluid was introduced into the thoracic cavity. The fluid was aspirated 2-3 times with a 3ml pastette to wash the cavity, before being collected into separate 10ml conical-based plastic test-tubes. Any blood contaminated fluids were rejected.
The mass of each tube with fluid was determined. By subtracting the mass of an empty tube from these values, and assuming a density for the fluid of 1g/cm^3, the fluid volume was quantified.
Results were analysed by ANOVA followed by Bonferroni T-test. Values of p<0.05 were considered significant.
Dosing was one hour prior to and one hour post pleurisy induction and inflammation was assessed at 4 hours.

The test system of data set [6] is Rats. The experiment in a line: Adjuvant arthritis (joint diameter and patellar bone mass). Format: in vivo. The note with it: for % Change: ([left-right]/right)X100. As to the method:
The drugs were administered daily by oral gavage for 4 days (day 0-3); piroxicam and MED 15 were dissolved in 5% Gum arabic + 0.01% Tween 80, and administered in a volume of 0.5ml. Piroxicam was administered as 3mg/kg and MED 15 was administered as 25, 50 and 100mg/kg doses. Table 8 bis illustrating dosage regimes. L=left stifle joint, R=Right stifle joint.
Under halothane anaesthesia, rats received 200µg of heat-killed finely ground Mycobactyerium tubercolosis in 25µl (80mg/10ml sterile saline) injected intra-articulary into the left stifle joint. The contralateral joint received 25µl 0.9% sterile saline. Control animals received 25µl of 0.9% sterile saline in both knees. SGE 50µl microsyringes with a volume lock calibrated at 25µl were used with 30G stainless steel needles. Solutions were prepared sterile, and aseptic technique was used throughout, with sterilisation of syringes between groups.
The rats were killed by carbon dioxide suffocation. The body weight was noted and the skin overlying the stifle joints was divided and the joint diameters assessed in mm using Mitutoyo vernier callipers (530-312, 0.02mm).
The patellae were dissected, weighed (Sartorius, 0.01mg) and then immersed in 1ml digestion buffer (see below) to remove soft tissue.
Digestive buffer was prepared fresh to the following formula; disodium hydrogen orthophosphate 20mM, EDTA 1mM and diothiothreitol at 2mM. Papain (EC 3.4.22.2) was added at a concentration of 6U/ml. Each patella was digested in 1ml of digestive buffer at 56°C for 4 hours. The residual paterllar bones were dried (100°C 24 hours) and weighed (Sartorius 0.01mg).
Results are presented as follows: left and right parameter alone, the difference between arthritic and contralateral control joint (left-right); and % difference between arthritic and control joints ([left-right]/right]X100).
Calculations were carried out using the spreadsheet program Lotus 123. Statistical comparisons were made between the absolute differences using INSTAT Mann Whitney unpaired two-tailed statistical test.

Broadly, the %inhibition is the share of the control response that was lost under treatment. A low value points to a response near the control.

Take `CC(=O)Oc1ccccc1C(=O)O` [ASA, acetyl salicylic acid, reference compound]: in the data set on gastric PGE2 (gastric PGE2 versus controls), the “%inhibition” value was 86.7%. Further, in the data set on gastric PGE2 (gastric tissue, rat, controls 108.7±23.9), the “PGE2 (ngtg^Δ tissue)±S.E.” value is listed as 14.4±4.5 nanograms for gram of tissue.
With `O=C(O)Cc1ccccc1Nc1c(Cl)cccc1Cl` [Diclofenac, reference compound], in data set [1], the duration of effect came to 3 h, the latency time worked out at 20 min and the “time to reach peak effect” value was 1 h. For the same compound, in the data set with patients [2], the Suspensions of treatment is 63 and the “% of totale” value is given as 18,7%. In the data set on Rats [3] (single dose, average), the decreased diuresis is 10%. The diuresis result in the data set with Rats [3] (treated orally for 8 consecutive days, fig. 13) is listed as “clear decrease”.
As for `COc1ccc2c(c1)c(CC(=O)O)c(C)n2C(=O)c1ccc(Cl)cc1` [Indomethacin, reference compound], the “incidence of adverse events involving the stomach” value in the data set on patients [4] was at least 30%. For the same compound, the “Exudate volume” value in the data set with Rats [5] (3mg/kg orally 1 hour prior to and 1 hour post induction, 4 hour, control 0.94±0.04) came to 0.47 ± 0.11 mL. For the same compound, in the data set on Rats [5] (3mg/kg, compared to gum tragacanth control), the “reduction in exudate volume” value was found to be 50%.
With `Cc1cnc(NC(=O)C2=C(O)c3ccccc3S(=O)(=O)N2C)s1` [Meloxicam], in the data set on patients [2], the Suspensions of treatment is listed as 42 and the “% of totale” value is reported as 12,4%.
As to `CN1C(C(=O)Nc2ccccn2)=C(O)c2ccccc2S1(=O)=O` [Piroxicam, reference compound], the “Swelling Diameter difference (L-R)” value in the data set with Rats [6] (3mg/kg daily oral, day 0-3) is 1.67 mm. In the data set with Rats [6] (3mg/kg daily oral, day 0-3, left = arthritic joint), the “Joint diameter (mm) Left” value is given as 10.41 mm. The “Joint diameter (mm) Right” value in the data set on Rats [6] (3mg/kg daily oral, day 0-3, right = saline control joint) was determined as 8.74 mm. Moreover, the “% Change” value in the data set with Rats [6] (joint diameter, 3mg/kg daily oral) is on record as 19.15%; in the data set on Rats [6] (patellar bone mass, 3mg/kg daily oral), -27.74%. In the data set on Rats [6] (patellar bone mass, arthritic groups), the “protection against bone loss” value is given as “greatest protection against bone loss”. In addition, in the data set on Rats [6] (patellar bone, 3mg/kg daily oral), the “Bone loss Left-Right” value is on record as -1.31 mg. Besides, the “Bone mass (mg) Left” value with Rats [6] (patellar bone, 3mg/kg daily oral, left = arthritic joint) is 3.07 mg. Also, the “Bone mass (mg) Right” value in the data set with Rats [6] (patellar bone, 3mg/kg daily oral, right = saline control joint) came out at 4.21 mg.
